This is an account of results in ChEMBL document CHEMBL1201862, “PubChem BioAssay data set” (2004).

Holding throughout (assay): NCI anticancer screen, dose series, 48 h
Experiment [1] has as its system 786-0.
Experiment [2] deals with ACHN.
The test system of experiment [3] is BT-549.
The test system of experiment [4] is COLO 205.
Experiment [5] deals with HCT-15.
For experiment [6], the system named is HOP-62.
The subject of experiment [7] is LOX IMVI.
For experiment [8], the system named is MCF7.
In experiment [9] the test system is NCI-H226.
Experiment [10] relates to NCI/ADR-RES.
Experiment [11] has as its system OVCAR-8.
In experiment [12] the test system is RPMI-8226.
Experiment [13] relates to SNB-19.
The subject of experiment [14] is SR.
Experiment [15] has as its system T47D.
The subject of experiment [16] is U-251.
In experiment [17] the test system is UACC-257.
Experiment [18] relates to UACC-62.
The test system of experiment [19] is UO-31.

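Dose response: 5 concentrations. Exposure: 48 h. Format: 96-well plates. Endpoint: linear interpolation; highest concentration if not reached. GI50 is the concentration that inhibits growth by half.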 Calls of active or inactive are those of the source. Rule as the data show it: active = GI50 up to about 1.1 µM and inactive = higher.

Consider `CCOC(=O)CCC(C(=O)OCC)n1nc2ccc(Nc3c(C)[n+]([O-])c4cc(F)c(OCC)cc4[n+]3[O-])cc2n1` (stereo not given), for which the GI50 in experiment [1] is 25.3 µM (inactive); in experiment [2], 40.2 µM (inactive); in experiment [3] it was 34 µM (inactive); in experiment [4], > 100 µM (inactive); in experiment [5], > 100 µM; in experiment [6], 17.5 µM (inactive). Besides, the GI50 was > 100 µM (inactive) in experiment [7]; 61.2 µM (inactive) in experiment [8]; 36.7 µM (inactive) in experiment [9]; 62.1 µM (inactive) in [10]; 30 µM (inactive) in experiment [11]; > 100 µM (inactive) in experiment [12]. Besides, the GI50 in experiment [13] is 31.9 µM (inactive); in [14], > 100 µM (inactive); in experiment [15], 66.1 µM (inactive); in experiment [16], 23.6 µM (inactive); in experiment [17], > 100 µM (inactive); in experiment [18], 36.3 µM (inactive). The GI50 in experiment [19] is 52.4 µM (inactive).
For `CCOC(=O)COc1c(OC)cc(C2C3=C(COC3=O)Oc3cc4c(cc32)OCO4)cc1OC` (stereo not given), the GI50 was 2.77 µM (inactive) in [1]; 6.52 µM (inactive) in [2]; 21.9 µM (inactive) in experiment [3]; 0.991 µM (active) in experiment [4]; 0.502 µM in [5]; 2.16 µM (inactive) in experiment [6]. Besides, the GI50 is 0.625 µM (active) in experiment [7]; 3.27 µM (inactive) in [8]; > 54 µM (inactive) in experiment [9]; 3.37 µM (inactive) in experiment [10]; 5.69 µM (inactive) in experiment [11]; 0.255 µM (active) in experiment [12]. The GI50 in experiment [13] was 13 µM (inactive); in [14], 0.995 µM (active); in experiment [15], 2.54 µM (inactive); in experiment [16] it was 0.499 µM (active); in experiment [17] it was 9.77 µM (inactive); in [18], 1.69 µM (inactive). Besides, in [19], the GI50 was 13.4 µM (inactive).
With `FC(F)(F)c1ccc2c(c1)nc(Cc1ccccc1)n2C[C@@H]1CCCN2CCCCC12` (stereo not given in full), the GI50 in experiment [1] was 13.9 µM (inactive); in [2] it was 13.5 µM (inactive); in experiment [3], 14 µM (inactive); in experiment [4], 14.1 µM (inactive); in [5], 14.6 µM; in [6], 14.6 µM (inactive). Besides, the GI50 was 15.1 µM (inactive) in [7]; 14.1 µM (inactive) in experiment [8]; 19.2 µM (inactive) in experiment [9]; 15.1 µM (inactive) in experiment [10]; 15.3 µM (inactive) in experiment [11]; 17.1 µM (inactive) in experiment [12]. The GI50 in [13] was 14.8 µM (inactive); in [14], 10.1 µM (inactive); in experiment [15], 14.4 µM (inactive); in experiment [16], 15.7 µM (inactive); in [17] it was 14.7 µM (inactive); in [18], 16.7 µM (inactive). Besides, the GI50 in experiment [19] was 0.19 µM (active).
Take `O=C(Nc1ccccc1)N(CCCCN(Cc1ccccc1)C(=O)Nc1ccccc1)Cc1ccccc1`: the GI50 was 95.3 µM (inactive) in [1]; > 100 µM (inactive) in [2]; > 100 µM (inactive) in experiment [3]; > 100 µM (inactive) in experiment [4]; > 100 µM in experiment [5]; > 100 µM (inactive) in experiment [6]. Besides, the GI50 in experiment [7] is > 100 µM (inactive); in [8], 92 µM (inactive); in experiment [9], > 100 µM (inactive); in experiment [10] it was > 100 µM (inactive); in experiment [11], > 100 µM (inactive); in experiment [12], > 100 µM (inactive). In addition, the GI50 in experiment [13] is 38 µM (inactive); in experiment [14] it was 44.3 µM (inactive); in experiment [15], 25.9 µM (inactive); in experiment [16], > 100 µM (inactive); in experiment [17], > 100 µM (inactive); in experiment [18], > 100 µM (inactive). Moreover, in experiment [19], the GI50 is 40 µM (inactive).
On to `COc1ccc(C2c3cc4c(cc3C(O)C3CCC(=O)N23)OCO4)cc1` (stereo not given), for which the GI50 was > 100 µM (inactive) in experiment [1]; > 100 µM (inactive) in experiment [2]; 96.4 µM (inactive) in experiment [3]; > 100 µM (inactive) in experiment [4]; > 100 µM in experiment [5]; > 100 µM (inactive) in experiment [6]. Moreover, the GI50 in [7], in experiment [8], in [9], in experiment [10], in [11] and in experiment [12] was > 100 µM (inactive) each time. The GI50 in [13], in experiment [14], in experiment [15], in [16], in [17] and in experiment [18] was > 100 µM (inactive) throughout. The GI50 in [19] is > 100 µM (inactive).
Turning to `CN(c1c(Cl)cccc1Cl)S(=O)(=O)c1ccccc1[N+](=O)[O-]`, the GI50 in experiment [1] was > 100 µM (inactive); in experiment [2], > 100 µM (inactive); in experiment [3], > 100 µM (inactive); in experiment [4] it was > 100 µM (inactive); in [5], > 100 µM; in experiment [6], > 100 µM (inactive). Besides, the GI50 in [7], in experiment [8], in [9], in experiment [10], in experiment [11] and in [12] was > 100 µM (inactive) throughout. The GI50 in experiment [13], in experiment [14], in experiment [15], in [16], in experiment [17] and in [18] was > 100 µM (inactive) each time. Besides, the GI50 in experiment [19] is > 100 µM (inactive).
In the case of `CCCN(CCC)C(=S)Sc1nc(C)nc(N2CCN(c3nc(C)nc(SC(=S)N(CCC)CCC)c3[N+](=O)[O-])CC2)c1[N+](=O)[O-]`, the GI50 in experiment [1] is 3.62 µM (inactive); in [2], 13.9 µM (inactive); in experiment [3], 5.2 µM (inactive); in experiment [4] it was 0.262 µM (active); in [5], 9.4 µM; in experiment [6] it was 29.4 µM (inactive). For the same compound, the GI50 in [7] is 0.421 µM (active); in [8], 0.248 µM (active); in experiment [9] it was 21.8 µM (inactive); in experiment [10], 41.5 µM (inactive); in experiment [11], 5.5 µM (inactive); in experiment [12] it was 0.386 µM (active). The GI50 in experiment [13] is 22.6 µM (inactive); in [14] it was 1.07 µM (active); in experiment [15], 8.2 µM (inactive); in experiment [16], 6.5 µM (inactive); in experiment [17], 15.6 µM (inactive); in experiment [18] it was 7.94 µM (inactive). For the same compound, in experiment [19], the GI50 was 17.9 µM (inactive).
On to `O=C1N[C@@H]2c3c(Br)sc(Br)c3C(=O)[C@@H]2O1`, for which the GI50 in [1] is 7.11 µM (inactive); in [2], 1.85 µM (inactive); in [3], 8.57 µM (inactive); in experiment [4], 2.56 µM (inactive); in experiment [5], 1.91 µM; in [6], 22 µM (inactive). Moreover, the GI50 is 1.83 µM (inactive) in experiment [7]; 3.98 µM (inactive) in experiment [8]; 9.66 µM (inactive) in [9]; 3.66 µM (inactive) in experiment [10]; 2.11 µM (inactive) in [11]; 5.12 µM (inactive) in experiment [12]. Also, the GI50 is 15.8 µM (inactive) in experiment [13]; 1.81 µM (inactive) in experiment [14]; 9.18 µM (inactive) in experiment [15]; 2.39 µM (inactive) in [16]; 3.32 µM (inactive) in [17]; 13.2 µM (inactive) in experiment [18]. Besides, the GI50 in experiment [19] is 10.1 µM (inactive).
For `O=C(Nc1ccn(C2CC(I)C(COC(c3ccccc3)(c3ccccc3)c3ccccc3)O2)c(=O)n1)c1ccccc1` (stereo not given), the GI50 in experiment [1] was 8.34 µM (inactive); in experiment [2] it was 12.7 µM (inactive); in [3], 25.6 µM (inactive); in [4] it was 7.59 µM (inactive); in experiment [5] it was 8.73 µM; in experiment [6], 14 µM (inactive). Further, the GI50 in [7] is 8.18 µM (inactive); in experiment [8], 4.86 µM (inactive); in [9] it was 8.55 µM (inactive); in [10] it was 9.75 µM (inactive); in experiment [11], 9.25 µM (inactive); in experiment [12] it was 7.26 µM (inactive). Besides, the GI50 was 12.9 µM (inactive) in experiment [13]; 0.6 µM (active) in [14]; 6.87 µM (inactive) in experiment [15]; 10.1 µM (inactive) in [16]; 10.8 µM (inactive) in experiment [17]; 11.2 µM (inactive) in experiment [18]. Further, the GI50 in experiment [19] is 4.53 µM (inactive).
Take `Cc1cn(C2CC(N=[N+]=[N-])C(CO[Si](C)(C)C(C)(C)C)O2)c(=O)[nH]c1=O` (stereo not given): the GI50 in experiment [1] is 15.6 µM (inactive); in experiment [2] it was 21.8 µM (inactive); in experiment [3], 10.7 µM (inactive); in experiment [4], 17.5 µM (inactive); in [5], 18.3 µM; in experiment [6] it was 16.4 µM (inactive). Further, the GI50 is 16.9 µM (inactive) in experiment [7]; 18 µM (inactive) in experiment [8]; 14.9 µM (inactive) in [9]; 16.6 µM (inactive) in experiment [10]; 19.4 µM (inactive) in experiment [11]; 17.9 µM (inactive) in experiment [12]. The GI50 in experiment [13] was 19.8 µM (inactive); in experiment [14], 23.3 µM (inactive); in experiment [15], 29.4 µM (inactive); in [16] it was 18.1 µM (inactive); in experiment [17], 21.6 µM (inactive); in [18], 14.6 µM (inactive). Moreover, in experiment [19], the GI50 is 16.6 µM (inactive).
